Test: xn = mol fraction of the nth substance listed
Conditions: 101 kPa, Liquid; for speed of sound: Linear variable-path acoustic interferometer; for mass density: Pycnometric method; for viscosity: Capillary tube (Ostwald / Ubbelohde) method

C=C(C)C(=O)OC [methyl methacrylate] + CC(=O)N(C)C
Conditions	mass density [kg/m3]	speed of sound [m/s]	viscosity [mPa·s]
303.15 K, x1 = 0.0714	932.33	–	–
303.15 K, x1 = 0.144	932.63	–	–
303.15 K, x1 = 0.2125	932.85	–	–
303.15 K, x1 = 0.2823	933.03	–	–
303.15 K, x1 = 0.3568	933.14	–	–
303.15 K, x1 = 0.4318	933.2	–	–
303.15 K, x1 = 0.5046	933.22	–	–
303.15 K, x1 = 0.5769	933.19	1298.9	–
303.15 K, x1 = 0.6512	933.1	1275.4	–
303.15 K, x1 = 0.7205	932.98	1253.7	–
303.15 K, x1 = 0.7845	932.82	1233.8	–
303.15 K, x1 = 0.8558	932.56	1211.8	–
303.15 K, x1 = 0.9281	932.24	1189.9	–
303.15 K, x1 = 1	931.89	1168.5	–
308.15 K, x1 = 0.0714	927.77	1409.8	0.789
308.15 K, x1 = 0.144	928.01	1396.4	0.7601
308.15 K, x1 = 0.2125	928.16	1382.1	0.7332
308.15 K, x1 = 0.2823	928.26	1365.2	0.7071
308.15 K, x1 = 0.3568	928.29	1345.7	0.68
308.15 K, x1 = 0.4318	928.26	1324.8	0.654
308.15 K, x1 = 0.5046	928.19	1303.4	0.6305
308.15 K, x1 = 0.5769	928.07	1281.5	0.6082
308.15 K, x1 = 0.6512	927.89	1258.5	0.5867
308.15 K, x1 = 0.7205	927.68	1237.5	0.5678
308.15 K, x1 = 0.7845	927.43	1217.7	0.5507
308.15 K, x1 = 0.8558	927.07	1196.1	0.5325
308.15 K, x1 = 0.9281	926.63	1174.2	0.514
308.15 K, x1 = 1	926.15	1152.6	0.496
313.15 K, x1 = 0.0714	923.21	1392.2	0.743
313.15 K, x1 = 0.144	923.38	1379.6	0.7165
313.15 K, x1 = 0.2125	923.46	1365.5	0.6916
313.15 K, x1 = 0.2823	923.49	1348.6	0.6671
313.15 K, x1 = 0.3568	923.44	1328.3	0.6422
313.15 K, x1 = 0.4318	923.32	1306.9	0.6183
313.15 K, x1 = 0.5046	923.16	1285.6	0.5963
313.15 K, x1 = 0.5769	922.95	1263.9	0.5759
313.15 K, x1 = 0.6512	922.68	1241.1	0.5562
313.15 K, x1 = 0.7205	922.38	1220.1	0.5387
313.15 K, x1 = 0.7845	922.04	1200.9	0.523
313.15 K, x1 = 0.8558	921.57	1179	0.506
313.15 K, x1 = 0.9281	921.01	1157.2	0.4891
313.15 K, x1 = 1	920.41	1135.4	0.4723
318.15 K, x1 = 0.0714	918.65	1374.5	0.7095
318.15 K, x1 = 0.144	918.75	1362.8	0.6842
318.15 K, x1 = 0.2125	918.76	1348.2	0.6607
318.15 K, x1 = 0.2823	918.72	1330.9	0.6374
318.15 K, x1 = 0.3568	918.59	1310.1	0.6135
318.15 K, x1 = 0.4318	918.38	1288.6	0.5905
318.15 K, x1 = 0.5046	918.13	1267.2	0.5693
318.15 K, x1 = 0.5769	917.83	1245.9	0.5497
318.15 K, x1 = 0.6512	917.47	1223.7	0.5307
318.15 K, x1 = 0.7205	917.08	1202.8	0.5141
318.15 K, x1 = 0.7845	916.65	1184	0.4991
318.15 K, x1 = 0.8558	916.07	1162.4	0.4828
318.15 K, x1 = 0.9281	915.39	1140.2	0.4662
318.15 K, x1 = 1	914.66	1118.3	0.4499
